Results published in patent EP1081186A1, “Stabilized aqueous acrylamide polymer composition and photographic element containing the composition” (EASTMAN KODAK COMPANY (a New Jersey corporation), priority 1999, dated 2001).

Experiment: Inherent viscosity stability of aqueous acrylamide polymer solutions on keeping (capillary viscometer)
Assay type: physicochemical
Conditions: 0.33 % added to 15 % copolymer solution; at room temperature and at 50°C; compared with isopropanol
Experimental: In the following examples the inherent viscosities of the solutions were measured in a capillary viscometer at a polymer concentration of 0.25 g/dl using aqueous 0.1M sodium sulfate as the solvent. The measurements were carried out at a temperature of 25 degrees C. Inherent viscosity (I.V.) is calculated as: I.V. = ln( t / t0 )/c where t is the polymer solution flow time through the capillary, t0 is the solvent flow time, and c is the polymer concentration. [formula]
Initial Inherent Viscosities ranged from 2.00 to 2.12 dL/g. Percentage Change was defined with the following equation: %Change=(I.V.(t)-I.V.(0))/(I.V.(0))× 100 [formula] where I.V.(0) is the initial inherent viscosity and I.V.(t) is the inherent viscosity of the polymer at time t.
Initial Inherent Viscosities range from 1.90 to 2.00 dL/g. The I.V. change is determined as previously defined.

In the case of `CC(C)(C)c1cccc(O)c1O` [t-butyl catechol], the inherent viscosity stability is reported as “equal to or better than ten times the concentration of isopropanol”.
